Data: US7119090B2, “Pyrrole substituted 2-indolinone protein kinase inhibitors” (Sugen, Inc., priority 1998, dated 2006)

Columns and labels:
HUV-EC-C cells (VEGF) = assay: HUV-EC-C assay, VEGF-stimulated 3H-thymidine incorporation (HUVEC-VEGF); type: cell-based; conditions: Homo sapiens; Table 1
Protocol: (§1) The following protocol may also be used to measure a compound's activity against PDGF-R, FGF-R, VEGF, aFGF or Flk-1/KDR, all of which are naturally expressed by HUV-EC cells.
(§2) 1. […] After cells have detached from the flask, add an equal volume of assay medium and transfer to a 50 ml sterile centrifuge tube (Fisher Scientific, catalogue no. 05-539-6).
(§3) 2. Wash the cells with about 35 ml assay medium in the 50 ml sterile centrifuge tube by adding the assay medium, centrifuge for 10 minutes at approximately 200x g, aspirate the supernatant, and resuspend with 35 ml D-PBS. Repeat the wash two more times with D-PBS, resuspend the cells in about 1 ml assay medium/is cm^2 of tissue culture flask. Assay medium consists of F12K medium (Gibco BRL, catalogue no. 21127-014) and 0.5% heat-inactivated fetal bovine serum. Count the cells with a Coulter Counter® (Coulter Electronics, Inc.) and add assay medium to the cells to obtain a concentration of 0.8-1.0×10^5 cells/ml.
(§4) 3. Add cells to 96-well flat-bottom plates at 100 μl/well or 0.8-1.0×10^4 cells/well, incubate −24h at 37° C., 5% CO2.
(§5) 1. Make up two-fold test compound titrations in separate 96-well plates, generally 50 μM on down to 0 μM. Use the same assay medium as mentioned in day 0, step 2 above. Titrations are made by adding […] of test compound at 200 μM (4X the final well concentration) to the top well of a particular plate column. Since the stock test compound is usually 20 mM in DMSO, the 200 μM drug concentration contains 2% DMSO.
(§6) A diluent made up to 2% DMSO in assay medium (F12K+0.5% fetal bovine serum) is used as diluent for the test compound titrations in order to dilute the test compound but keep the DMSO concentration constant. Add this diluent to the remaining wells in the column at 60 μl/well. Take 60 μl from the 120 μl of 200 μM test compound dilution in the top well of the column and mix with the 60 μl in the second well of the column. Take 60 μl from this well and mix with the 60 μl in the third well of the column, and so on until two-fold titrations are completed. When the next-to-the-last well is mixed, take 60 μl of the 120 μl in this well and discard it. Leave the last well with 60 μl of DMSO/media diluent as a non-test compound-containing control. Make 9 columns of titrated test compound, enough for triplicate wells each for: (1) VEGF (obtained from Pepro Tech Inc., catalogue no. 100-200, (2) endothelial cell growth factor (ECGF) (also known as acidic fibroblast growth factor, or aFGF) (obtained from Boehringer Mannheim Biochemica, catalogue no. 1439 600), or, (3) human PDGF B/B (1276-956, Boehringer Mannheim, Germany) and assay media control. ECGF comes as a preparation with sodium heparin.
(§7) 2. Transfer 50 μl/well of the test compound dilutions to the 96-well assay plates containing the 0.8-1.0×10^4 cells/100 μl/well of the HUV-EC-C cells from day 0 and incubate […] at 37° C., 5% CO2.
(§8) 3. In triplicate, add 50 μl well of […] VEGF, 20 ng/ml ECGF, or media control to each test compound condition. As with the test compounds, the growth factor concentrations are 4X the desired final concentration. Use the assay media from day 0 step 2 to make the concentrations of growth factors. Incubate approximately 24 hours at 37° C., 5% CO2. Each well will have 50 μl test compound dilution, 50 μl growth factor or media, and 100 μl cells, which calculates to 200 μl/well total. Thus the 4X concentrations of test compound and growth factors become 1X once everything has been added to the wells.
(§9) 1. Add ^3H-thymidine (Amersham, catalogue no. TRK-686) at 1 μCi/well (10 μl/well of 100 μCi/ml solution made up in RPMI media +10% heat-inactivated fetal bovine serum) and incubate ˜24 h at 37° C., 5% CO2. RPMI is obtained from Gibco BRL, catalogue no. 11875-051.
(§10) 1. Freeze plates overnight at −20° C. […]

HUV-EC-C cells (aFGF) = assay: HUV-EC-C assay, aFGF (ECGF)-stimulated 3H-thymidine incorporation (HUVEC-aFGF); type: cell-based; conditions: Homo sapiens; Table 1
Protocol: as §1, §2, §3, §4, §5, §6, §7, §8, §9, §10

SMILES	IC50 (HUV-EC-C cells (VEGF)) [µM]	IC50 (HUV-EC-C cells (aFGF)) [µM]
Cc1c(CCC(=O)O)c[nH]c1/C=C1\C(=O)Nc2ccccc21 [Example 4, 3-[4-Methyl-5-(2-oxo-l,2-dihydroindol-3-ylidenemethyl)-1H-pyrrol-3-yl]-propionic acid]	0.11	7.1
COC(=O)c1ccc2c(c1)/C(=C/c1[nH]cc(CCC(=O)O)c1C)C(=O)N2 [Example 12, 3-[4-(2-Carboxyethyl)-3-methyl-1H-pyrrol-2-ylmethylene]-2-oxo-2,3-dihydro-1H-indole-5-carboxylic acid methyl ester]	11	24.6
Cc1c(CCC(=O)O)c[nH]c1/C=C1\C(=O)Nc2cc(Br)ccc21 [Example 28, 3-[5-(6-Bromo-2-oxo-1,2-dihydroindol-3-ylidenemethyl)-4-methyl-1H-pyrrol-3-yl]-propionic acid]	0.15	1.9
COc1cc2c(cc1OC)/C(=C/c1[nH]cc(CCC(=O)O)c1C)C(=O)N2 [Example 10, 3-[5-(5,6-Dimethoxy-2-oxo-1,2-dihydroindol-3-ylidenemethyl)-4-methyl-1H-pyrrol-3-yl]-propionic acid]	10.6	> 50
CCOc1cccc(-c2ccc3c(c2)NC(=O)/C3=C\c2[nH]cc(CCC(=O)O)c2C)c1 [Example 31, 3-{5-[6-(3-Ethoxy-phenyl)-2-oxo-1,2-dihydroindol-3-ylidenemethyl]-4-methyl-1H-pyrrol-3-yl}-propionic acid]	0.09	0.18
COc1ccc2c(c1)/C(=C/c1[nH]cc(CCC(=O)O)c1C)C(=O)N2 [Example 18, 3-[5-(5-Methoxy-2-oxo-1,2-dihydroindol-3-ylidenemethyl)-4-methyl-1H-pyrrol-3-yl]-propionic acid]	2.4	18.4
Cc1cccc2c1/C(=C/c1[nH]cc(CCC(=O)O)c1C)C(=O)N2 [Example 8, 3-[4-Methyl-5-(4-methyl-2-oxo-1,2-dihydroindol-3-ylidenemethyl)-1H-pyrrol-3-yl]-propionic acid]	0.74	4.52
CCc1ccc2c(c1)/C(=C/c1[nH]cc(CCC(=O)O)c1C)C(=O)N2 [Example 17, 3-[5-(5-Ethyl-2-oxo-1,2-dihydro-indol-3-ylidenemethyl)-4-methyl-1H-pyrrol-3-yl]-propionic acid]	1.2	20
CCOc1cccc(-c2ccc3c(c2)NC(=O)/C3=C\c2[nH]c(C)c(CCC(=O)O)c2C)c1 [Example 30, 3-(5-[6-(3-Ethoxy-phenyl)-2-oxo-1,2-dihydroindol-3-ylidenemethyl]-2,4-dimethyl-1H-pyrrol-3-yl)-propionic acid]	0.25	0.64
COc1cccc(-c2ccc3c(c2)NC(=O)/C3=C\c2[nH]cc(CCC(=O)O)c2C)c1 [Example 29, 3-{5-[6-(3-Methoxy-phenyl)-2-oxo-1,2-dihydroindol-3-ylidenemethyl]-4-methyl-1N-pyrrol-3-yl}-propionic acid]	0.18	0.13
Cc1c(CCC(=O)O)c[nH]c1/C=C1\C(=O)Nc2cc(-c3ccccc3)ccc21 [Example 33, 3-[4-Methyl-5-(2-oxo-6-phenyl-1,2-dihydro-indol3-ylidenemethyl)-1H-pyrrol-3-yl]-propionic acid]	0.81	1

Continued, in another order:

IC50 (HUV-EC-C cells (VEGF)) [µM]	SMILES	IC50 (HUV-EC-C cells (aFGF)) [µM]
3	Cc1[nH]c(/C=C2\C(=O)Nc3cc(O)ccc32)c(C)c1CCC(=O)O [Example 23, 3-[5-(6-Hydroxy-2-oxo-1,2-dihydroindol-3-ylidenemethyl)-2,4-dimethyl-1H-pyrrol-3-yl]-propionic acid]	1.1
0.13	Cc1ccc2c(c1)/C(=C/c1[nH]c(C)c(CCC(=O)O)c1C)C(=O)N2 [Example 22, 3-[2,4-Dimethyl-5-(5-methyl-2-oxo-1,2-dihydroindol-3-ylidenemethyl)-1H-pyrrol-3-yl]-propionic acid]	15.8
1.4	Cc1c(CCC(=O)O)c[nH]c1/C=C1\C(=O)Nc2cc(Cl)ccc21 [Example 11, 3-[5-(6-Chloro-2-oxo-1,2-dihydroindol-3-ylidenemethyl)-4-methyl-1H-pyrrol-3-yl]-propionic acid]	9.6
0.38	Cc1c(CCC(=O)O)c[nH]c1/C=C1\C(=O)Nc2ccc(Cl)cc21 [Example 1, 3-[5-(5-Chloro-2-oxo-1,2-dihydroindol-3-ylidenemethyl)-4-methyl-1H-pyrrol-3-yl]-propionic acid]	21.4
10	Cc1[nH]c(/C=C2\C(=O)Nc3cc(-c4ccccc4)ccc32)c(C)c1CCC(=O)O [Example 32, 3-[2,4-Dimethyl-5-(2-oxo-6-phenyl-1,2-dihydroindol-3-ylidenemethyl)-1H-pyrrol-3-yl]-propionic acid]	10
0.67	COc1ccc2c(c1)NC(=O)/C2=C\c1[nH]c(C)c(CCC(=O)O)c1C [Example 24, 3-[5-(6-Methoxy-2-oxo-1,2-dihydroindol-3-ylidenemethyl)-2,4-dimethyl-1H-pyrrol-3-yl]-propionic acid]	25.1
0.07	Cc1[nH]c(/C=C2\C(=O)Nc3ccc(Br)cc32)c(C)c1CCC(=O)O [Example 19, 3-[5-(5-Bromo-2-oxo-1,2-dihydroindol-3-ylidenemethyl)-2,4-dimethyl-1H-pyrrol-3-yl]-propionic acid]	3.6
0.29	Cc1[nH]c(/C=C2\C(=O)Nc3ccc(I)cc32)c(C)c1CCC(=O)O [Example 20, 3-[5-(5-Iodo-2-oxo-1,2-dihydroindol-3-ylidenemethyl)-2,4-dimethyl-1H-pyrrol-3-yl]-propionic acid]	5
0.99	COc1cccc(-c2ccc3c(c2)NC(=O)/C3=C\c2[nH]c(C)c(CCC(=O)O)c2C)c1 [Example 27, 3-{5-[6-(3-Methoxy-phenyl)-2-oxo-1,2-dihydroindol-3-ylidenemethyl]-2,4-dimethyl-1H-pyrrol-3-yl}-propionic acid]	1.5
0.05	Cc1[nH]c(/C=C2\C(=O)Nc3ccc(Cl)cc32)c(C)c1CCC(=O)O [Example 3, 3-[5-(5-Chloro-2-oxo-1,2-dihydroindol-3-ylidenemethyl)-2,4-dimethyl-1H-pyrrol-3-yl]-propionic acid]	2.8
0.63	Cc1c(CCC(=O)O)c[nH]c1/C=C1\C(=O)Nc2ccc(Br)cc21 [Example 6, 3-[5-(5-Bromo-2-oxo-1,2-dihydroindol-3-ylidenemethyl)-4-methyl-1H-pyrrol-3-yl]-propionic acid]	18.4
1.34	Cc1c(CCC(=O)O)c[nH]c1/C=C1\C(=O)Nc2ccc(I)cc21 [Example 7, 3-[5-(5-Iodo-2-oxo-1,2-dihydroindol-3-ylidenemethyl)-4-methyl-1H-pyrrol-3-yl]-propionic acid]	12.3
4	Cc1cccc2c1/C(=C/c1[nH]c(C)c(CCC(=O)O)c1C)C(=O)N2 [Example 21, 3-[2,4-Dimethyl-5-(4-methyl-2-oxo-1,2-dihydroindol-3-ylidene-methyl)-1H-pyrrol-3-yl]-propionic acid]	5.6
0.33	Cc1ccc2c(c1)/C(=C/c1[nH]cc(CCC(=O)O)c1C)C(=O)N2 [Example 9, 3-[4-Methyl-5-(5-methyl-2-oxo-1,2-dihydroindol-3-ylidenemethyl)-1H-pyrrol-3-yl]-propionic acid]	13.4
